“And” between values parts separate entries of the source, which are not always exact repeats. Equal entries are not always repeated. Toxic doses and inconclusive results are not listed. How the source made its calls: active means survival T/C of 150% or more; inactive means T/C below 125% in these data. Positions of bridges follow the written chain, without caps; N, C: chain ends. Non-standard residues stand in square brackets, D forms with d. Residues, ends and D or L forms follow the SMILES beside them. Aib = CC(C)(N)C(=O)O
System: BDF1 mice, P388 leukemia ip, median survival T/C
Assay: NCI In Vivo Anticancer Drug Screen. Data for tumor model P388 Leukemia (intraperitoneal) in B6D2F1 (BDF1) mice
Conditions: endpoint: median survival time, higher = longer survival
Summary of the method: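 Each value expresses how treatment altered survival: treated-mouse outcome over vehicle-mouse outcome, both groups bearing the transplanted tumour.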

[1] = dose: 50.0 mg/kg/injection, schedule: Q04DX003 (ip), vehicle: Klucel (hydroxypropylcellulose) (HPC)

Measured: T/C

CC(C)CC1NC(=O)CNC(=O)C(C)(C)NC(=O)C(C(C)C)NC(=O)C(C)(C)NC(=O)C(CCC(N)=O)NC(=O)C(C)NC(=O)C(C)(C)NC(=O)C(C)NC(=O)C(C)(C)NC(=O)C2CCCN2C(=O)CCC(C(=O)NC(CCC(N)=O)C(=O)O)NC(=O)C(C)(C)NC(=O)C(C)(C)NC(=O)C(C(C)C)NC(=O)C2CCCN2C(=O)C(C)(C)NC1=O (centres undefined) (P[Aib]A[Aib]AQ[Aib]V[Aib]GL[Aib]PV[Aib][Aib]EQ-OH; lactam N-17; configuration not given here)
inactive: dose: 1.25 mg/kg/injection, schedule: Q01DX009 (ip), vehicle: water 118 % of control | dose: 2.5 mg/kg/injection, schedule: Q01DX009 (ip), vehicle: water 102 % of control

NCCCn1c2ccccc2c2cnccc21
inactive: dose: 5.0 mg/kg/injection, schedule: Q01DX009 (ip), vehicle: water 105 % of control | dose: 10.0 mg/kg/injection, schedule: Q01DX009 (ip), vehicle: water 94 % of control | dose: 20.0 mg/kg/injection, schedule: Q01DX009 (ip), vehicle: water 119 % of control | dose: 25.0 mg/kg/injection, schedule: Q01DX009 (ip), vehicle: water 91 % of control | dose: 25.0 mg/kg/injection, schedule: Q04DX003 (ip), vehicle: water 103 % of control | dose: 40.0 mg/kg/injection, schedule: Q01DX009 (ip), vehicle: water 119 % of control | dose: 50.0 mg/kg/injection, schedule: Q04DX003 (ip), vehicle: water 107 % of control | dose: 100.0 mg/kg/injection, schedule: Q04DX003 (ip), vehicle: water 99 % of control

CC(=O)Nc1cc2c(cc1[N+](=O)[O-])-c1ccc([N+](=O)[O-])cc1C2
inactive: dose: 6.25 mg/kg/injection, schedule: Q01DX009 (ip), vehicle: Klucel (hydroxypropylcellulose) (HPC) 89 % of control | dose: 12.5 mg/kg/injection, schedule: Q01DX009 (ip), vehicle: Klucel (hydroxypropylcellulose) (HPC) 97 % of control | dose: 25.0 mg/kg/injection, schedule: Q01DX009 (ip), vehicle: Klucel (hydroxypropylcellulose) (HPC) 89 % of control and 91 % of control

C/C=C1\C(=O)O[C@@]23C=C[C@H]4C(C(=O)OC)=CO[C@@H](O[C@H]12)[C@H]43
inactive: dose: 0.75 mg/kg/injection, schedule: Q01DX009 (ip), vehicle: saline 100 % of control | dose: 2.5 mg/kg/injection, schedule: Q01DX009 (ip), vehicle: saline 115 % of control | dose: 165.0 micrograms/kg/injection, schedule: Q01DX009 (ip), vehicle: Klucel (hydroxypropylcellulose) (HPC) 105 % of control | dose: 620.0 micrograms/kg/injection, schedule: Q01DX009 (ip), vehicle: Klucel (hydroxypropylcellulose) (HPC) 115 % of control | dose: 1250.0 micrograms/kg/injection, schedule: Q01DX009 (ip), vehicle: Klucel (hydroxypropylcellulose) (HPC) 105 % of control

CCCCCCCCCCCCCCCCOCCCCCCCCCCCCCCCC
inactive: dose: 100.0 mg/kg/injection, schedule: Q01DX009 (ip), vehicle: other 86 % of control | dose: 100.0 mg/kg/injection, schedule: Q04DX003 (ip), vehicle: other 91 % of control | dose: 200.0 mg/kg/injection, schedule: Q01DX009 (ip), vehicle: other 86 % of control | dose: 200.0 mg/kg/injection, schedule: Q04DX003 (ip), vehicle: other 91 % of control

O=C1C=CC(=C(c2ccccc2)c2ccccc2)C=C1
inactive: dose: 12.5 mg/kg/injection, schedule: Q04DX003 (ip), vehicle: Klucel (hydroxypropylcellulose) (HPC) 95 % of control | dose: 25.0 mg/kg/injection, schedule: Q04DX003 (ip), vehicle: Klucel (hydroxypropylcellulose) (HPC) 100 % of control | [1] 91 % of control

CCOC(=O)CCN(CC1CC=CCC1)c1cc(O)c2c(c1O)C(=O)c1ccccc1C2=O (centres undefined)
inactive: dose: 50.0 mg/kg/injection, schedule: Q01DX005 (ip), vehicle: saline with Tween-80 94 % of control | dose: 100.0 mg/kg/injection, schedule: Q01DX005 (ip), vehicle: saline with Tween-80 89 % of control | dose: 200.0 mg/kg/injection, schedule: Q01DX005 (ip), vehicle: saline with Tween-80 90 % of control

CCOC(=O)/C(C#N)=C/C=C1\C=CC=CN1C
inactive: dose: 50.0 mg/kg/injection, schedule: Q01DX009 (ip), vehicle: saline with Tween-80 90 % of control

O=C(Nc1ccc2ncccc2c1)Nc1ccc2ncccc2c1
inactive: dose: 50.0 mg/kg/injection, schedule: Q01DX009 (ip), vehicle: Klucel (hydroxypropylcellulose) (HPC) 87 % of control | [1] 91 % of control | dose: 100.0 mg/kg/injection, schedule: Q01DX009 (ip), vehicle: Klucel (hydroxypropylcellulose) (HPC) 95 % of control | dose: 100.0 mg/kg/injection, schedule: Q04DX003 (ip), vehicle: Klucel (hydroxypropylcellulose) (HPC) 95 % of control | dose: 200.0 mg/kg/injection, schedule: Q04DX003 (ip), vehicle: Klucel (hydroxypropylcellulose) (HPC) 91 % of control

Reference: PubChem BioAssay AID328 (DTP/NCI, 2004)
